pIC50: −log10 of the molar value. One block for each molecule: values may come before it.
Columns and labels:
[1] = biological target: BRD4 (Homo sapiens, UniProt O60885); experiment: AlphaScreen assay against BRD4; format: binding
[2] = biological target: T1, purified human cytochrome p450 reductase (Homo sapiens, UniProt P16435); experiment: Purified reductase assay (hypoxic/normoxic incubation, HPLC); format: in vitro ADME; conditions: 250 nM
T1 construct: purchased Cypex
T1 sequence (P16435 1-677): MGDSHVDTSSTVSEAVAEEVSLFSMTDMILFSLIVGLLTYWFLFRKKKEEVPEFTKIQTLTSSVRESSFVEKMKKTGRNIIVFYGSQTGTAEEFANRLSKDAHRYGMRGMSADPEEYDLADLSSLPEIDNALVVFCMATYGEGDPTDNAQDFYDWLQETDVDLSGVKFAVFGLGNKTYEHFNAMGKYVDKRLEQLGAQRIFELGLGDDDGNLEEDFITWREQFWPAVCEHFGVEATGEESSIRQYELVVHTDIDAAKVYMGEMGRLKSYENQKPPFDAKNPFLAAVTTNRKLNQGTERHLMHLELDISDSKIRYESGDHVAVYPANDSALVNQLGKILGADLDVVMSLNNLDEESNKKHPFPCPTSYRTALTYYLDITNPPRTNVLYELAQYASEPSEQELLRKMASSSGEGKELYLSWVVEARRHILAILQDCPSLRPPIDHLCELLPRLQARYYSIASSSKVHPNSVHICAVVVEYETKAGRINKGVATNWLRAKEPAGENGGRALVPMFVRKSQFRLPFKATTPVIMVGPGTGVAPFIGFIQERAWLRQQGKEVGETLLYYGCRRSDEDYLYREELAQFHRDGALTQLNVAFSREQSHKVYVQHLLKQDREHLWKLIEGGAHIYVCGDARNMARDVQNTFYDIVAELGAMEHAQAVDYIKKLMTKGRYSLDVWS
Description: The bioreductive compound 18 (Example 1) was incubated with purified human cytochrome p450 reductase in hypoxic and normoxic conditions.
Bactosomal human NADPH-CYP reductase (Cypex, 12.7 mg/mL, 13900 nmol/min/mL) was used in combination with an NADPH-regenerating system (BD Biosciences), and the assay was carried out according to the manufacturer's protocol (BD Biosciences application note 467) at a compound 18 concentration of 250 nM. For hypoxic conditions, vials were deoxygenated by bubbling nitrogen prior to P450 addition and then transferred into a Bactron II (Shell laboratories). Samples were taken at different time points and analyzed by HPLC.

[3] = biological target: T2, Cytochrome P450 reductase (Homo sapiens, UniProt P16435); experiment: Cytochrome P450 reductase assay of compound A; format: in vitro ADME; conditions: anaerobic conditions, over 8 h (FIG. 8)
T2 sequence (P16435 1-677): T1 sequence (P16435 1-677)
Description: Compound A was subject to a Cytochrome P450 reductase assay in accordance with the procedure of Cazares-Korner (CH-01 is a hypoxia-activated prodrug that sensitizes cells to hypoxia/reoxygenation through inhibition of Chk1 and Aurora A., ACS Chem. Biol. 2013 DOI:10.1021/cb4001537).
FIG. 8 records absorbance at 0, 2, 4 and 8 hours under hypoxic (FIG. 8a) and normoxic (FIG. 8b) conditions.

[4] = Fluorimetry of compound A and its reduced counterpart B; format: physicochemical; conditions: 50 μM in iPrOH, excitation wavelength 515 nm, (FIG. 6)
Description: Compound A (Example 7) was synthesised in accordance with Sun et at (Chem. Commun., 2013, 49, 3890-3892). Fluorescence spectra of the compound, as well as its reduced counterpart compound B, was confirmed by fluorimetry.
50 μM solutions of A and B were prepared in iPrOH and fluorimetry carried out using a Perkin Elmer Luminescence Spectrometer LS 50 B with an excitation wavelength of 515 nm. Results are depicted in FIG. 6.

[5] = system: RKO (colorectal) cancer cell lines; experiment: Cell-based assay: incubation in RKO cells, HPLC of the lysate
Description: Compound 21 was administered to cells in culture and incubated in (a) hypoxic and (b) normoxic conditions.
RKO (colorectal) cancer cell lines were cultured in DMEM medium containing 10% FBS, penicillin (100 U/mL) and streptomycin (100 μg/mL). RKO cell line was originally obtained from the ATCC and routinely mycoplasma tested and found to be negative. Experiments were carried out with cells at 75% confluence.
Hypoxia Treatments were carried out in a Bactron II (Shell laboratories), In vivo 400 (Ruskinn), or Heracell mixed gas incubator (Fisher Scientific) depending on the level of hypoxia required.
HPLC Analysis HPLC (Waters 2695 system) comprised an RPB column (100 mm×3.2 mm, 35° C.). […] Detection used a photodiode array spectrophotometer (Waters 2996), a mass spectrometer (Waters Micromass ZQ mass spectrometer), and a UV spectrometer (Waters 296 diode array detector) scanning from 210 nm to 400 nm with a resolution set at 3.6 nm. Injections of 10 μL were made.

decrease in potency vs compound 3 ([1]; BRD4 AlphaScreen IC50, compound 18 vs compound 3): 2 fold
pIC50 ([1]; same AlphaScreen assay): 6.13
reduction/fragmentation by human CYP reductase ([2]; normoxic conditions, HPLC (FIG. 2b)): no activation was observed
Compound: Cc1noc(C)c1-c1cc(OCc2c([N+](=O)[O-])ccc3ncccc23)cc(C(O)c2ccccc2)c1 (stereo not drawn) [Compound 18, (3-(3,5-Dimethylisoxazol-4-yl)-5-((6-nitroquinolin-5-yl)methoxy)phenyl)(phenyl) methanol]
reduction/fragmentation by human CYP reductase ([2]; hypoxic conditions, HPLC (FIG. 2a)): undergoes reduction by human CYP, including fragmentation to release compound 3

reductive conversion to compound B [3]: trace reductive conversion to compound B
difference in fluorescence emission between A and B [4]: ~650 fold
Compound: N#CC(C#N)=C1C=C(/C=C/c2ccc(N=[N+]=[N-])cc2)Oc2ccccc21 [Compound A, (E)-2-(2-(4-azidostyryl)-4H-chromen-4-ylidene)malononitrile]

melting point: 204 to 206 °C
UV absorbance of the compound's peak in the cell lysate ([5]; normoxia, over 24 h, HPLC (FIG. 3b)): continued to increase
Compound: CC(=O)Nc1ccc(OCc2c([N+](=O)[O-])ccc3ncccc23)cc1 [Compound 21, N-(4-((6-Nitroquinolin-5-yl)methoxy)phenyl)acetamide]
UV absorbance of the compound's peak in the cell lysate ([5]; hypoxia, HPLC (FIG. 3a)): hypoxia-dependent decrease in UV absorbance

Reference: US20160264558A1, “FLUOROGENIC PROTECTING GROUP” (ISIS INNOVATION LIMITED, priority 2013, published 2016)
